Bounds are passed on as bounds.

What is called IC50 is the point on the concentration scale where inhibition reaches its midpoint.

Sequence of EBI2 (P32249 whole entry): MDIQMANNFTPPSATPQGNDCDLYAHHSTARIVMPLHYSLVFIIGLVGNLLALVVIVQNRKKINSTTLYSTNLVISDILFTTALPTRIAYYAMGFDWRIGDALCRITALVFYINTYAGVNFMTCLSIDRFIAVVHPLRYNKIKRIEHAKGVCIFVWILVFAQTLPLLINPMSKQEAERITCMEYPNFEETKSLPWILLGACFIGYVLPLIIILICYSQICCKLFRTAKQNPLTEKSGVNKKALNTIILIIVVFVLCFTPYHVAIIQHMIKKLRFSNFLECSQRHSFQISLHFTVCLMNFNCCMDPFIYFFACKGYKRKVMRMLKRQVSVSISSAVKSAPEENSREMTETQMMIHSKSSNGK

The test has as its target EBI2 (Homo sapiens, UniProt P32249). Kind of test: Cell-based luminescent assay of EBI2 modulation (7a,25-OHC stimulated). The following applies: 7a,25-OHC final assay concentration 80 nM, 60 minute incubation. The procedure, abridged: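 Cells expressing EBI2 were plated overnight, then treated 60 min at 37 °C with compound (final 4-5 uM) plus 7a,25-OHC (80 nM final). Detection reagent was added for 60 min at 25 °C in the dark, with luminescence read-out. Values were normalized between neutral and stimulator controls and corrected for plate patterns.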
Turning to `O=C(C#Cc1ccc(Cl)cc1)N1CCC2(CC1)CN(Cc1ccc(Cl)cc1)C2` [Compound C82, 3-(4-chlorophenyl)-1-{2-[(4-chlorophenyl)methyl]-2,7-diazaspiro[3.5]non-7-yl}prop-2-yn-1-one], the IC50 is under 100 nM.

In the case of `O=C(C#Cc1ccc(Cl)cc1)N1CC2(CCN(Cc3ccc(C(F)(F)F)cc3)CC2)C1` [Compound C83, 3-(4-chlorophenyl)-1-(7-{[4-(trifluoromethyl)phenyl]methyl}-2,7-diazaspiro[3.5]non-2-yl)prop-2-yn-1-one], the half-inhibitory concentration (IC50) lay in the range of 500 to 5000 nM.

On to `O=C(C#Cc1ccc(Cl)cc1)N1CC2(CCN(C(=O)c3ccc(Cl)cc3)CC2)C1` [Compound C84, 3-(4-chlorophenyl)-1-{7-[(4-chlorophenyl)carbonyl]-2,7-diazaspiro[3.5]non-2-yl}prop-2-yn-1-one], for which the IC50 is under 100 nM.

Consider `O=C(C#Cc1ccc(Cl)cc1)N1CC2(CCN(Cc3ccc(Cl)cc3)CC2)C1` [Compound C85, 3-(4-chlorophenyl)-1-{7-[(4-chlorophenyl)methyl]-2,7-diazaspiro[3.5]non-2-yl}prop-2-yn-1-one], for which the IC50 lay within 100 to 500 nM.

The compound `O=C(C#Cc1ccc(F)cc1)N1CCC2(CC1)CN(C(=O)c1ccc(F)cc1)C2` [Compound C86, 3-(4-fluorophenyl)-1-{2-[(4-fluorophenyl)carbonyl]-2,7-diazaspiro[3.5]non-7-yl}prop-2-yn-1-one] displayed an IC50 of 100 to 500 nM.

In the case of `O=C(C#Cc1ccc(F)cc1)N1CCC2(CC1)CN(C(=O)c1ccc(Cl)cc1)C2` [Compound C87, 1-{2-[(4-chlorophenyl)carbonyl]-2,7-diazaspiro[3.5]non-7-yl}-3-(4-fluorophenyl)prop-2-yn-1-one], the IC50 was under 100 nM.

Compound `O=C(C#Cc1ccc(F)cc1)N1CCC2(CC1)CN(C(=O)c1ccc(C(F)(F)F)cc1)C2` [Compound C88, 3-(4-fluorophenyl)-1-(2-{[4-(trifluoromethyl)phenyl]carbonyl}-2,7-diazaspiro[3.5]non-7-yl)prop-2-yn-1-one] displayed an IC50 of under 100 nM.

As for `COc1ccc(C(=O)N2CC3(CCN(C(=O)C#Cc4ccc(F)cc4)CC3)C2)cc1` [Compound C89, 3-(4-fluorophenyl)-1-{2-[(4-methoxyphenyl)carbonyl]-2,7-diazaspiro[3.5]non-7-yl}prop-2-yn-1-one], the IC50 was 100 to 500 nM.

Compound `O=C(C#Cc1ccc(F)cc1)N1CCC2(CC1)CN(Cc1ccc(F)cc1C(F)(F)F)C2` [Compound C90, 3-(4-fluorophenyl)-1-(2-{[4-fluoro-2-(trifluoromethyl)phenyl]methyl}-2,7-diazaspiro[3.5]non-7-yl)prop-2-yn-1-one] registered an IC50 of 100 to 500 nM.

Regarding `COc1ccc(C(=O)N2CCC3(CC2)CN(C(=O)C#Cc2ccc(Cl)cc2)C3)cc1` [Compound C91, 3-(4-chlorophenyl)-1-{7-[(4-methoxyphenyl)carbonyl]-2,7-diazaspiro[3.5]non-2-yl}prop-2-yn-1-one], the IC50 was under 100 nM.

`COc1ccc(C(=O)N2CCC3(CC2)CN(C(=O)C#Cc2ccc(F)cc2)C3)cc1` [Compound C92, 3-(4-fluorophenyl)-1-{7-[(4-methoxyphenyl)carbonyl]-2,7-diazaspiro[3.5]non-2-yl}prop-2-yn-1-one] came in with an IC50 of 100 to 500 nM.

`O=C(C#Cc1ccc(F)cc1)N1CC2(CCN(C(=O)c3ccc(F)cc3)CC2)C1` [Compound C93, 3-(4-fluorophenyl)-1-{7-[(4-fluorophenyl)carbonyl]-2,7-diazaspiro[3.5]non-2-yl}prop-2-yn-1-one] registered an IC50 of 500 to 5000 nM.

Regarding `O=C(C#Cc1ccc(F)cc1)N1CC2(CCN(C(=O)c3ccc(Cl)cc3)CC2)C1` [Compound C94, 1-{7-[(4-chlorophenyl)carbonyl]-2,7-diazaspiro[3.5]non-2-yl}-3-(4-fluorophenyl)prop-2-yn-1-one], the IC50 is 100 to 500 nM.

Compound `O=C(C#Cc1ccc(F)cc1)N1CC2(CCN(C(=O)c3ccc(Br)cc3)CC2)C1` [Compound C95, 1-{7-[(4-bromophenyl)carbonyl]-2,7-diazaspiro[3.5]non-2-yl}-3-(4-fluorophenyl)prop-2-yn-1-one] gave an IC50 of under 100 nM.

`O=C(C#Cc1ccc(F)cc1)N1CC2(CCN(C(=O)c3ccc(C(F)(F)F)cc3)CC2)C1` [Compound C96, 3-(4-fluorophenyl)-1-(7-{[4-(trifluoromethyl)phenyl]carbonyl}-2,7-diazaspiro[3.5]non-2-yl)prop-2-yn-1-one] returned an IC50 of under 100 nM.

Compound `COc1ccc(C(=O)N2CCC3(CC2)CN(C(=O)C#Cc2ccc(F)cc2F)C3)cc1` [Compound C97, 3-(2,4-difluorophenyl)-1-{7-[(4-methoxyphenyl)carbonyl]-2,7-diazaspiro[3.5]non-2-yl}prop-2-yn-1-one] yielded an IC50 of 100 to 500 nM.

In the case of `O=C(C#Cc1ccc2c(c1)OCO2)N1CCC2(CC1)CN(C(=O)c1ccc(Cl)cc1)C2` [Compound C98, 3-(2H-benzo[3,4-d]1,3-dioxolen-5-yl)-1-{2-[(4-chlorophenyl)carbonyl]-2,7-diazaspiro[3.5]non-7-yl}prop-2-yn-1-one], the IC50 lay in the range of 100 to 500 nM.

On to `O=C(C#Cc1ccc(F)cc1)N1CCC2(CC1)CN(C(=O)c1ccc(Br)cc1)C2` [Compound C99, 1-{2-[(4-bromophenyl)carbonyl]-2,7-diazaspiro[3.5]non-7-yl}-3-(4-fluorophenyl)prop-2-yn-1-one], for which the IC50 fell in the range of 100 to 500 nM.

As to `O=C(c1ccc(C(F)(F)F)c(F)c1)N1CCC2(CC1)CCN(C(=O)c1cc3cc(Cl)ccc3[nH]1)CC2` [Compound C100, 5-chloroindol-2-yl 9-{[3-fluoro-4-(trifluoromethyl)phenyl]carbonyl}-3,9-diazaspiro[5.5]undec-3-yl ketone], the IC50 was under 100 nM.

In turn, `O=C(C#Cc1ccc2c(c1)OCO2)N1CCC2(CC1)CN(C(=O)c1ccc(Br)cc1)C2` [Compound I1, 3-(2H-benzo[3,4-d]1,3-dioxolen-5-yl)-1-{2-[(4-bromophenyl)carbonyl]-2,7-diazaspiro[3.5]non-7-yl}prop-2-yn-1-one] displayed an IC50 of 500 to 5000 nM.

Compound `O=C(/C=C/c1ccc(Br)cc1)N1CCC2(CC1)CN(C(=O)c1ccc(Cl)cc1)C2` [Compound L1, (2E)-3-(4-bromophenyl)-1-{2-[(4-chlorophenyl)carbonyl]-2,7-diazaspiro[3.5]non-7-yl}prop-2-en-1-one] showed an IC50 of under 100 nM.

The compound “bromophenyl)-1-{2-[(4-bromophenyl)carbonyl]-2,7-diazaspiro[3.5]non-7-yl}prop-2-yn-1-one [Compound C66]” registered an IC50 of 100 to 500 nM.

For the origin of these results see patent US10196369B2, “Spirocyclic EBI2 modulators” (Sanford Burnham Prebys Medical Discovery Institute, priority 2013, dated 2019).
